In assay [1] the target is T1, ERO1α (Homo sapiens, UniProt Q96HE7).
T1 sequence (Q96HE7 24-468): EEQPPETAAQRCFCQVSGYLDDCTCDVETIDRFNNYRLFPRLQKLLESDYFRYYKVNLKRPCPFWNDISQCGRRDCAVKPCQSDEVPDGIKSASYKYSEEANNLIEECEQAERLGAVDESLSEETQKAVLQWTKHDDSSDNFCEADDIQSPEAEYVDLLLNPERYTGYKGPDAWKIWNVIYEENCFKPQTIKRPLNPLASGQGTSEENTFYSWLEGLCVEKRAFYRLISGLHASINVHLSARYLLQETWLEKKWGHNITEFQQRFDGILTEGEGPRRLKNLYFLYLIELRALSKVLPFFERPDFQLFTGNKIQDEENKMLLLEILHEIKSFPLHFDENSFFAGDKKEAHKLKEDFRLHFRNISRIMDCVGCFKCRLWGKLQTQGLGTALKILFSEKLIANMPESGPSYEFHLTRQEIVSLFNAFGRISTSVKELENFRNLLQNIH
The assay is described as follows: Bio-layer interferometry, B12-5 on biotinylated ERO1α biosensor. To be noted: read-out: KD, binding to ERO1α. From the text: (§1) FIG. 18(A-R) is an exemplary embodiment of novel small-molecule inhibitors recapitulating the defect in Ero1α (endoplasmic reticulum oxidoreductase 1a)-null platelets in accordance with the present disclosure. FIG. 18A: The structure of B12 and its inhibitory effect on ERO1α activity. FIG. 18(B-E): The inhibitory effect of B12 on P-selectin exposure and αIIbβ3 integrin activation in (FIG. 18B and FIG. 18C) mouse and (FIG. 18D and FIG. 18E) human platelets. FIG. 18F: The structure of B12-5 and its inhibitory effect on ERO1α activity. FIG. 18G: A docking model of B12-5-ERO1α (3AHQ) and flavin adenine dinucleotide (FAD)-ERO1α complex. There are pi-sulfur interactions of the phenothiazine head group (B112-5) or a tricyclic ring (FAD) with Met389 and Cys397. Also, there are H bond interactions between the tail/alkyl group and His255, Asn259, and Arg287. […] After incubation with a different concentration of B12-5, the specific interaction between B12-5 and ERO1α was measured by subtracting the nonspecific binding. The KD value was calculated from the Kon and Koff values. […] P values determined by ANOVA and Dunnett test (FIG. 18(B-E), FIG. 18(1-L), and FIG. 18(O-R) [for B12-5]) or Student t test (FIG. 18M, FIG. 18N, and FIG. 18(O-R) [for BAPTA (1,2-bis(o-aminophenoxy)ethane-N,N,N′,N′-tetraacetic acid)]). […]
(BLI is a label-free optical method that tracks binding on a fibre tip over time.)

Assay [2] deals with human platelets. Kind of assay: Flow cytometry of P-selectin exposure and αIIbβ3 integrin activation, human platelets. The assay is classed as cell-based. To be noted: 3 to 10 μM, human platelets, thrombin or CRP.
Source text: as §1
On the technique in general: Flow cytometry measures light scatter and fluorescence of single cells or particles in a stream.

The test system of assay [3] is human platelets. Kind of assay: Ca2+ mobilization (FLIPR), human platelets. Format: cell-based. Conditions: thrombin or A23187. As for the experimental part:
Ca^2+ mobilization was measured as described previously. WT control and Ero1α-null platelets (1×10^8/mL) were suspended in HEPES-Tyrode buffer, pH 7.4. Cells were incubated with a Ca^2+ dye (FLIPR Ca^2+5 assay kit; Molecular Devices) for 30 minutes at 37° C. in the dark, followed by stimulation with thrombin (0.1 U/mL), A23187 (2 μM) or thapsigargin (10-20 μM). After measuring Ca^2+ release, 1 mM CaCl2) was immediately added to assess Ca^2+ influx. In other experiments, Ca^2+ dye-labeled human and WT mouse platelets were incubated with a vehicle or an inhibitor for 10 minutes at 37° C. Cytosolic Ca^2+ levels were measured using a FlexStation3 microplate reader with an excitation wavelength of 485 nm and an emission wavelength of 525 nm. Ca^2+ mobilization was quantified by the area under the curve and expressed as a relative fluorescence unit.
(In general: A change in cytosolic calcium serves as a functional read-out for many receptors and channels.)

The next assay concerns the target PDI (Homo sapiens, UniProt P07237). Kind of assay: PDI activity assay. Format: biochemical. From the text: FIG. 17(A-F) is an exemplary embodiment of identification of novel ERO1α inhibitors by high throughput screening in accordance with the present disclosure. FIG. 17A: A scheme of an ERO1α activity assay. FIG. 17B: Screening of chemical libraries in the ERO1α activity assay. FIG. 17C: The inhibitory effect of selected compounds on ERO1α activity. FIG. 17D: The inhibitory effect of selected compounds on PDI activity. FIG. 17E: The inhibitory effect of selected compounds on H2O2 activity. FIG. 17F: The inhibitory effect of selected compounds on thiol-reacting activity. The data represent the mean±SD (n=3). *P<0.05, **P<0.01, ***P<0.001, and ****P<0.0001 vs. vehicle control, Student's t-test.
To identify a novel ERO1α inhibitor, 5800 compounds were screened using an ERO1α activity assay (FIG. 17A and FIG. 17B). […] The selected compounds were further tested in assays measuring PDI, antioxidant, and thiol-reacting activities (FIG. 17D through FIG. 17F). […] B12 inhibited P-selectin exposure and αIIbβ3 activation in agonist-activated mouse and human platelets in a concentration-dependent manner (FIG. 18B through FIG. 18E).

For a further assay, the system named is platelets. To be noted: 10 to 33 μM, recent study; cited from earlier work.
For assay [4] the following is noted: from studies; cited from earlier work.
The target of assay [5] is T1, ERO1α. Conditions: from studies; cited from earlier work.

The structures appear in SMILES notation. Entries after “also recorded” stand apart in the source; their conditions may differ.

Sequence of PDI (P07237 18-508, species assumed): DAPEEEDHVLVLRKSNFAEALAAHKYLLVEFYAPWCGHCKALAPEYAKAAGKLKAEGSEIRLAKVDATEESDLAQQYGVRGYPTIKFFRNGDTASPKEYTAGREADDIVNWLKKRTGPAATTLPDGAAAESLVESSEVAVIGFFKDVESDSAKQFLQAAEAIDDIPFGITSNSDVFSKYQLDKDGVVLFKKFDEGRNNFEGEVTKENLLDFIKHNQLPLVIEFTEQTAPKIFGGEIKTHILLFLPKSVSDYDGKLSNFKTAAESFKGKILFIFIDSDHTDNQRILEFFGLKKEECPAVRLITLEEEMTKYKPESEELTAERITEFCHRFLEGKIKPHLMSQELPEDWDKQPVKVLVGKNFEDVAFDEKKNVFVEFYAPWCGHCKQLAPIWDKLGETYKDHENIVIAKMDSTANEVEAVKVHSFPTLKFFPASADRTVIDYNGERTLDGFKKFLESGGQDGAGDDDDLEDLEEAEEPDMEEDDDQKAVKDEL

In the case of `O=C(CSc1nc(O)cc(O)n1)N1c2ccccc2Sc2ccccc21` [B12-5], the dissociation constant Kd at ERO1α [1] turned out to be 12.9 ± 3.8 µM. The “P-selectin exposure and αIIbβ3 activation” value with human platelets [2] is listed as “significantly reduced”. Also, the “Ca2+ release and influx” value in the assay with human platelets [3] is recorded as “dose dependently inhibited”. Further, the “PDI inhibition at 100 μM (%)” value at PDI (100 μM) came out at 8.2 ± 2%. The “effect on PDI activity” value at PDI (at or up to 100 μM) is on record as “minimal effect; also recorded: did not affect”.

`O=C(O)c1cc(N2N=C(C(F)(F)F)/C(=C/c3ccc(-c4ccccc4)o3)C2=O)ccc1Cl` [EN460]: the thrombin-induced platelet aggregation entry in the assay on platelets is on record as “significantly blocks”. Besides, the thiol-reacting activity result in assay [4] is “has thiol-reacting activity”. Moreover, the half-maximal inhibitory concentration (IC50) at ERO1α [5] was 1.9 µM.

A word on the Kd: it is the concentration at which binding is half-saturated. Usually IC50 stands for the concentration that inhibits the measured activity by half.

The record behind these values is patent US20240366624A1, “METHODS AND COMPOSITIONS FOR TREATING THROMBOTIC DISEASE” (Washington University, priority 2023, published 2024).
